# Reference: BindingDB's records for doi:10.7270/Q2CV4GM1 (D3R/Abbott, 2015)
# pIC50: −log10 of the molar value. Where “and” joins values, the source holds several entries; their conditions need not be identical. Equal entries are not always repeated.
# Target: T1, Tyrosine-protein kinase SYK [355-635] (Homo sapiens, UniProt P43405)
# T1 construct: 355-635
# Test: SYK assay_HTRF
row,SMILES,pIC50
1,CC(=O)N1CCC(CN(c2ccnc(Nc3ccc4[nH]c(=O)[nH]c4c3)n2)c2cccc3[nH]ncc23)CC1 [GTC000339A],7.37 and 7.57
2,CCN(c1nc(Nc2cccc(-c3cccnc3)c2)ncc1F)c1cccc2[nH]ncc12 [GTC000340A],7.53
3,CCN(c1nc(Nc2cc(S(N)(=O)=O)ccc2OC)ncc1F)c1cccc2[nH]ncc12 [GTC000341A],7.52
4,CCN(c1nc(Nc2cccc(S(=O)(=O)NC3CC3)c2)ncc1F)c1cccc2[nH]ncc12 [GTC000342A],7.47
5,CCN(c1nc(Nc2ccc(C)c(S(=O)(=O)NCCO)c2)ncc1F)c1cccc2[nH]ncc12 [GTC000343A],7.49
6,NC(=O)c1cccc(Nc2ncc(F)c(N(CCCO)c3cccc4[nH]ncc34)n2)c1 [GTC000344A],7.50
7,COCCN(c1ccnc(Nc2ccc3c(cnn3C)c2)n1)c1cccc2[nH]ncc12 [GTC000345A],7.51
8,COCCCN(c1nc(Nc2cccc(C(N)=O)c2)ncc1F)c1cccc2[nH]ncc12 [GTC000346A],7.52
9,COCCCN(c1nc(Nc2cccc(S(C)(=O)=O)c2)ncc1F)c1cccc2[nH]ncc12 [GTC000347A],7.48
10,CCN(c1nc(Nc2ccc(N)c(OC(C)=O)c2)ncc1F)c1cccc2[nH]ncc12 [GTC000348A],7.52
11,CCN(c1nc(Nc2ccc(C)c(S(N)(=O)=O)c2)ncc1F)c1cccc2[nH]ncc12 [GTC000349A],7.44
12,CCCN(c1nc(Nc2ccc3c(c2)S(=O)(=O)CC3)ncc1F)c1cccc2[nH]ncc12 [GTC000350A],7.39
13,CN(c1nc(Nc2ccc(C(N)=O)cc2)ncc1F)c1cccc2[nH]ncc12 [GTC000351A],7.44
14,COCCCN(c1ccnc(Nc2cccc(S(C)(=O)=O)c2)n1)c1cccc2[nH]ncc12 [GTC000352A],7.64 and 7.00
15,CCN(c1nc(Nc2ccc3c(c2)C(=O)N(C)C3)ncc1F)c1cccc2[nH]ncc12 [GTC000353A],7.49 and 6.96
16,CCN(c1nc(Nc2ccc3c(c2)CCN3C(=O)C(F)(F)F)ncc1F)c1cccc2[nH]ncc12 [GTC000354A],7.23
17,CCN(c1nc(Nc2cccc(S(N)(=O)=O)c2)ncc1Cl)c1cccc2[nH]ncc12 [GTC000355A],7.24
18,NS(=O)(=O)c1cccc(Nc2nccc(N(CCCCO)c3cccc4[nH]ncc34)n2)c1 [GTC000356A],7.23
19,CCN(c1nc(Nc2ccc3c(c2)NC(=O)CO3)ncc1F)c1cccc2[nH]ncc12 [GTC000357A],7.17
20,CNC(=O)CN(c1nc(Nc2ccc3c(c2)S(=O)(=O)NC3)ncc1F)c1cccc2[nH]ncc12 [GTC000358A],7.09
21,CN(c1nc(Nc2cccc(S(C)(=O)=O)c2)ncc1F)c1cccc2[nH]ncc12 [GTC000359A],7.06
22,CS(=O)(=O)c1cccc(Nc2ncc(F)c(N(CCCO)c3cccc4[nH]ncc34)n2)c1 [GTC000360A],7.10
23,CCN(c1nc(Nc2ccc3[nH]c(=O)oc3c2)ncc1F)c1cccc2[nH]ncc12 [GTC000361A],7.14
24,CCN(c1nc(Nc2ccc(-c3cnco3)c(OC)c2)ncc1F)c1cccc2[nH]ncc12 [GTC000362A],7.06

# Continued, values first:
row,pIC50,SMILES
1,6.98,CCN(c1nc(Nc2ccc(N3CCN(C)CC3)cc2)ncc1F)c1cccc2[nH]ncc12 [GTC000363A]
2,6.99,CCN(c1nc(Nc2cc(S(N)(=O)=O)ccc2C)ncc1F)c1cccc2[nH]ncc12 [GTC000364A]
3,7.01,NS(=O)(=O)c1cccc(Nc2nccc(N(CC(F)(F)F)c3cccc4[nH]ncc34)n2)c1 [GTC000365A]
4,6.96,CN(c1nc(Nc2cccc(C(N)=O)c2)ncc1F)c1cccc2[nH]ncc12 [GTC000366A]
5,7.09 and 6.76 and 6.80 and 6.77,CNC(=O)CN(c1nc(Nc2ccc3c(c2)S(=O)(=O)CC3)ncc1F)c1cccc2[nH]ncc12 [GTC000367A]
6,6.64 and 7.05,CCN(CC)CCCN(c1ccnc(Nc2ccc3c(c2)CNS3(=O)=O)n1)c1cccc2[nH]ncc12 [GTC000368A]
7,6.70,NC(=O)CN(c1nc(Nc2ccc3c(c2)S(=O)(=O)CC3)ncc1F)c1cccc2[nH]ncc12 [GTC000369A]
8,6.73,CCN(c1nc(Nc2ccc3c(C)n(CCCO)nc3c2)ncc1F)c1cccc2[nH]ncc12 [GTC000370A]
9,6.65,NCCN(c1nc(Nc2ccc3c(c2)S(=O)(=O)CC3)ncc1F)c1cccc2[nH]ncc12 [GTC000371A]
10,6.61,CCN(c1nc(Nc2ccc(C(=O)N3CCN(C)CC3)cc2)ncc1F)c1cccc2[nH]ncc12 [GTC000372A]
11,6.20,CCN(c1nc(Nc2cc(S(=O)(=O)NCC3CCCO3)ccc2OC)ncc1F)c1cccc2[nH]ncc12 (stereo not given) [GTC000373A]
